What was measured:
[1] = system: giant reticulospinal (RS) neurons; design: species or system Petromyzon marinus; conditions: in vivo
[2] = system: giant reticulospinal (RS) neurons; design: species or system Petromyzon marinus; conditions: in vivo; remark: listed apart in the source
[3] = system: lamprey γ-synuclein; assay type: biochemical, Petromyzon marinus; conditions: 100 pM synuclein, varying CLR01 concentrations
Procedure: After purification of GST-tagged lamprey γ-synuclein, GST was cleaved off using thrombin (10 U/mg protein; GE Healthcare). Untagged γ-synuclein was then separated from GST and thrombin using Glutathione Sepharose 4B beads and p-aminobenzamidine agarose ([…]/50 U thrombin; Sigma A7155), respectively, and dialyzed into 0.1M PBS, pH 7.4. Aggregation of the purified lamprey γ-synuclein was analyzed using the thioflavin T (ThT) fluorescence assay and electron microscopy as described previously (Roychaudhuri et al. (2014) J. Mol. Biol. 426: 2422-2441), except that 100 pM synuclein and varying CLR01 concentrations were used.

[4] = system: Aβ and hyperphosphorylated tau; conditions: mouse, in vivo; cited from earlier work
[5] = system: α-synuclein neurotoxicity; conditions: in vivo; cited from earlier work
[6] = biological target: α-synuclein (Homo sapiens, UniProt P37840); conditions: cited from earlier work

Molecule | synuclein immunofluorescence intensity in good survivors [1] [AU] | synuclein immunofluorescence intensity in poor survivors [1] [AU] | survival of the giant RS neurons at the population level (Nissl (+)) [2] | synuclein immunofluorescence intensity in "good survivors" [1] [AU] | synuclein immunofluorescence intensity in "poor survivors" [1] [AU] | inhibition of lamprey γ-synuclein aggregation (ThT fluorescence) [3] | increase in neuronal survival across the entire RS neuron population [2] [%] | increase of percentage of Nissl (+) "poor survivors" [2] | effect on accumulation of Aβ and hyperphosphorylated tau [4] | effect on neurodegeneration and survival in zebrafish model [5] | effect on α-synuclein clearance in vitro [6] | effect on α-synuclein self-assembly and toxicity in vitro [6]
5′-CGC cTg CAT TgC TCT TTg TTT cTC T-3′ [MM MO] | 26.0±2.4 | 40.7±3.7 | 60.0±8.0 |  |  |  |  |  |  |  |  | 
5′-[…]-3′ [Con MO] | 25.7±1.9 | 42.6±3.5 | 56.7±5.7 |  |  |  |  |  |  |  |  | 
O=P(O)(O)Oc1c2c(c(OP(=O)(O)O)c3c1[C@H]1C[C@@H]3c3cc4c(cc31)[C@H]1C[C@@H]4c3ccccc31)[C@H]1C[C@@H]2c2cc3c(cc21)[C@H]1C[C@@H]3c2ccccc21 [CLR01] |  |  |  | 5.6±1.3 | 25.7±3.1 | inhibited by CLR01 in a dose-dependent manner | 22 | more than 4 fold | reduce accumulation of Aβ and hyperphosphorylated tau | reduces neurodegeneration and improves survival | facilitates α-synuclein clearance in vitro | inhibits a-synuclein self-assembly and toxicity in vitro

Source: US10918657B2 (priority 2013, dated 2021)
